Drawing on patent publication US9492471B2, “Methods of treating a disease or disorder associated with Bruton'S Tyrosine Kinase” (Celgene Avilomics Research, Inc., priority 2013, dated 2016), this text covers inhibition and remaining activity for one compound.

Holding throughout (test): HotSpot kinase profiling
Holding throughout (format): biochemical

One assay concerns the target T1, GRK7 (Homo sapiens, UniProt Q8WTQ7).
T1 construct: purchased Reaction Biology Corp
T1 sequence (Q8WTQ7 1-553): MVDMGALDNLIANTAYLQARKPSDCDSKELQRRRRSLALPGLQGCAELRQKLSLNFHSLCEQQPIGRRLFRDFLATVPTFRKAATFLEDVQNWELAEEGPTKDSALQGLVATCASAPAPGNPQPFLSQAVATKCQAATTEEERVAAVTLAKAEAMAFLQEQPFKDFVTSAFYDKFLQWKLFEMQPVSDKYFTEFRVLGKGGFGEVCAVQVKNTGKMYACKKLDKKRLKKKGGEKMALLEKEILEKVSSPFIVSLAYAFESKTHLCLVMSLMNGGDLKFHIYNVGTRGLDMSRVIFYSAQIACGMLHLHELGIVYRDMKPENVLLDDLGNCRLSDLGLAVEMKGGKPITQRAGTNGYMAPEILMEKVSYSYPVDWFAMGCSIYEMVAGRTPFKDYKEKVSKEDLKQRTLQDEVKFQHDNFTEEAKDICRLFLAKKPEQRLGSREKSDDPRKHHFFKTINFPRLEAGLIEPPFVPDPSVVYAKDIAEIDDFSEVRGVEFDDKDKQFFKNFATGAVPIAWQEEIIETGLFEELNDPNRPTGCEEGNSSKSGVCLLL
In a few lines: (§1)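 P81 filtration radiometric readout; 2 h incubation at room temperature; 0.1% phosphoric acid wash; DMSO negative control; % inhibition, mean of replicate runs.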

The next assay concerns the target T2, CAMK2d (Homo sapiens, UniProt Q13557).
T2 construct: purchased Reaction Biology Corp
In a few lines:
as §1

Another assay deals with T3, GRK6 (Homo sapiens, UniProt P43250).
T3 construct: purchased Reaction Biology Corp
T3 sequence (P43250 whole entry): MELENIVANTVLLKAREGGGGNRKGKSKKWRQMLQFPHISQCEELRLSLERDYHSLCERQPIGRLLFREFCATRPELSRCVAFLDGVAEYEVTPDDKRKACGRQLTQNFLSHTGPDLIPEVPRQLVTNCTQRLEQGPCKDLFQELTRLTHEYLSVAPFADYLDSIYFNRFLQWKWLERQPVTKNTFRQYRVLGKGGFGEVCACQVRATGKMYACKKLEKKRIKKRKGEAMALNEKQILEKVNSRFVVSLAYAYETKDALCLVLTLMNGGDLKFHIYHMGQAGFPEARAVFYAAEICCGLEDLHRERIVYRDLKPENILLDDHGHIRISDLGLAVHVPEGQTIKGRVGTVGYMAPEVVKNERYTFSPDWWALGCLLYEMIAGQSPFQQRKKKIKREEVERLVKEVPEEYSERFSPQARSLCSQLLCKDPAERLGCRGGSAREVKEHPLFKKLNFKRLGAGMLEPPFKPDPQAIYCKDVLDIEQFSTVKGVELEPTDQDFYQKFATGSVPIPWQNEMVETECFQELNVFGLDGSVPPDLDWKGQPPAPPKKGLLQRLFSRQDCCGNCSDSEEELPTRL
In a few lines: as §1

The next assay concerns the target T4, MELK (Homo sapiens, UniProt Q14680).
T4 construct: purchased Reaction Biology Corp
In a few lines:
as §1

A further assay addresses T5, CHK1 (Homo sapiens, UniProt O14757).
T5 construct: purchased Reaction Biology Corp
T5 sequence (O14757 1-476): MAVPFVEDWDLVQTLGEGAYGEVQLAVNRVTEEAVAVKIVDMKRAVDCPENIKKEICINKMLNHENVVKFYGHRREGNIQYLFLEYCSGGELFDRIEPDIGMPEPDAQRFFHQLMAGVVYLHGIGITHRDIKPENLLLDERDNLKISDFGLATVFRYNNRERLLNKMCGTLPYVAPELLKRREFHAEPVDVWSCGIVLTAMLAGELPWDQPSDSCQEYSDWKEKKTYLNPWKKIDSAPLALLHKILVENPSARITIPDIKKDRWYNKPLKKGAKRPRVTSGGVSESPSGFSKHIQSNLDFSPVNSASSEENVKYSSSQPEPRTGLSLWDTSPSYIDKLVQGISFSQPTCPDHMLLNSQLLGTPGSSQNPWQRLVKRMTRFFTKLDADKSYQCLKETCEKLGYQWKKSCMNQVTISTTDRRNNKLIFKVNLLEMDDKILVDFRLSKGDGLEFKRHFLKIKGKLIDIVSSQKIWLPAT
In a few lines: as §1

The target in the next assay is T6, IKKa/CHUK (Homo sapiens, UniProt O15111).
T6 construct: purchased Reaction Biology Corp
T6 sequence (O15111 1-745): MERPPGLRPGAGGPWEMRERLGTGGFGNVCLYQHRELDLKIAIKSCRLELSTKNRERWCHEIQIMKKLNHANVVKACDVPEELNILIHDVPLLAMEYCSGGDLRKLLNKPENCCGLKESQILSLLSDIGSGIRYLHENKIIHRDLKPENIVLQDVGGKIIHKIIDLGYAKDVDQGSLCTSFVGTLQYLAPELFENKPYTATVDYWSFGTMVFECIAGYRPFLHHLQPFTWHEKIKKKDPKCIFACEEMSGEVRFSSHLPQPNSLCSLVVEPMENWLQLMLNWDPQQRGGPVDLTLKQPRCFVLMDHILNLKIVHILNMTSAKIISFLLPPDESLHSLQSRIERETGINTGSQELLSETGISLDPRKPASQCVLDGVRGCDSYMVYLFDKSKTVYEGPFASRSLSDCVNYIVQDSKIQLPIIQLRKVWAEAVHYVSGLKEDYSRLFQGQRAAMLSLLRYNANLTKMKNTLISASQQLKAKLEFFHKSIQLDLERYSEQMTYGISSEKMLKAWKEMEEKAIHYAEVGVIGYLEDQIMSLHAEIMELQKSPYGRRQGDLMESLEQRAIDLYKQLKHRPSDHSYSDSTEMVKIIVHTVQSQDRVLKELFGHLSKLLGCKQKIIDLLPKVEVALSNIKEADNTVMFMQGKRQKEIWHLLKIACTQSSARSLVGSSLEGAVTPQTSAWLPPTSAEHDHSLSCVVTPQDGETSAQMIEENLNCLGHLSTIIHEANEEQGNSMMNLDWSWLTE
In a few lines:
as §1

A further assay concerns the target T7, CLK3 (Homo sapiens, UniProt P49761).
T7 construct: purchased Reaction Biology Corp
In a few lines: as §1

A further assay deals with T8, FGFR1 (Homo sapiens, UniProt P11362).
T8 construct: purchased Reaction Biology Corp
T8 sequence (P11362 22-822): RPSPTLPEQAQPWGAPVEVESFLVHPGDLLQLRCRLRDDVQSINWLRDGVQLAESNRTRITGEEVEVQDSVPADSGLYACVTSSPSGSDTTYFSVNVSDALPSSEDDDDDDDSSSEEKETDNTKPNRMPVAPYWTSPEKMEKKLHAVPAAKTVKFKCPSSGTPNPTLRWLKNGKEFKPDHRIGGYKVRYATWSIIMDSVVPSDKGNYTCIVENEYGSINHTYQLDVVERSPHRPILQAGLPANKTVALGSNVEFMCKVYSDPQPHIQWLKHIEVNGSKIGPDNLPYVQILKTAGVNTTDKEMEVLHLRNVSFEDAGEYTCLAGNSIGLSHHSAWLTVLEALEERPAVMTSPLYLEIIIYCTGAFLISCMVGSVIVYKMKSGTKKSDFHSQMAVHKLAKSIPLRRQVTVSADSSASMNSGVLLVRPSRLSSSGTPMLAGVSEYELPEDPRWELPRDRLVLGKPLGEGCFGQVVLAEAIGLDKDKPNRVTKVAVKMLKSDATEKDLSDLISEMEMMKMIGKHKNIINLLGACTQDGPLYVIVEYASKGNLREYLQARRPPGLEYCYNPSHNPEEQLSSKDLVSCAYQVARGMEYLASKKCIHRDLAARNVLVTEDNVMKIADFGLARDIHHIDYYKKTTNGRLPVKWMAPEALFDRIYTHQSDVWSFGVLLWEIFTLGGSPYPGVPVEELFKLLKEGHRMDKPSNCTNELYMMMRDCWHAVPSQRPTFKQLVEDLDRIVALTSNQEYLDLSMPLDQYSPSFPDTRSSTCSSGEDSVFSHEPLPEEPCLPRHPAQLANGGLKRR
In a few lines:
as §1

Where [1] appears, read: read-out: % Enzyme Activity (relative to DMSO controls) Run 1.
Where [2] appears, read: read-out: % Enzyme Activity (relative to DMSO controls) Run 2.

SMILES strings stand for the structures. Read-outs that look alike come from different tables or passages of the source.

T2 sequence (Q13557 whole entry): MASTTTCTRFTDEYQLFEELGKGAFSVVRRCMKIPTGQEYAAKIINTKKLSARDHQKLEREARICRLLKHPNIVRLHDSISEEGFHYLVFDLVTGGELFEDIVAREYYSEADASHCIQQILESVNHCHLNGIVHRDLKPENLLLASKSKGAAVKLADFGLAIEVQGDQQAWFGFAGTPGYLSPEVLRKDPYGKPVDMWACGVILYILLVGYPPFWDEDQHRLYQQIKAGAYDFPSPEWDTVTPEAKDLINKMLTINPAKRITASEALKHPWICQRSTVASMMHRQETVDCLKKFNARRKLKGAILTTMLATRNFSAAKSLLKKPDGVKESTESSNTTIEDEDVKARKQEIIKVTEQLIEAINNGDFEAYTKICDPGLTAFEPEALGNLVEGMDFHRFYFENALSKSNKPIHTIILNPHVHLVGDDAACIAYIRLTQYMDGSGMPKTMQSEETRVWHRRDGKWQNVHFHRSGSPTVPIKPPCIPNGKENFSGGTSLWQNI
T7 sequence (P49761 whole entry): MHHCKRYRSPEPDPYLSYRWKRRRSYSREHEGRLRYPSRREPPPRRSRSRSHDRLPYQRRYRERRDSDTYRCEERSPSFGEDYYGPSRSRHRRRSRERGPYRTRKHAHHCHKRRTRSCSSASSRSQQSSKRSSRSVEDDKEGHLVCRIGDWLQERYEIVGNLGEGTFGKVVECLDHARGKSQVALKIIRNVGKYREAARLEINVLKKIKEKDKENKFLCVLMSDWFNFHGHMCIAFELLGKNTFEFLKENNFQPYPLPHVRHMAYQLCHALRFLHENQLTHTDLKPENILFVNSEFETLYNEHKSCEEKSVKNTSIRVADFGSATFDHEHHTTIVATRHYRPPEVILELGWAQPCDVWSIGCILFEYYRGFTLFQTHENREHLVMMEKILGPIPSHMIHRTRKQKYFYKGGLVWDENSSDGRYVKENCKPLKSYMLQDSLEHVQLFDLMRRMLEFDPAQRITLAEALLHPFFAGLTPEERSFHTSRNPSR
T4 sequence (Q14680 whole entry): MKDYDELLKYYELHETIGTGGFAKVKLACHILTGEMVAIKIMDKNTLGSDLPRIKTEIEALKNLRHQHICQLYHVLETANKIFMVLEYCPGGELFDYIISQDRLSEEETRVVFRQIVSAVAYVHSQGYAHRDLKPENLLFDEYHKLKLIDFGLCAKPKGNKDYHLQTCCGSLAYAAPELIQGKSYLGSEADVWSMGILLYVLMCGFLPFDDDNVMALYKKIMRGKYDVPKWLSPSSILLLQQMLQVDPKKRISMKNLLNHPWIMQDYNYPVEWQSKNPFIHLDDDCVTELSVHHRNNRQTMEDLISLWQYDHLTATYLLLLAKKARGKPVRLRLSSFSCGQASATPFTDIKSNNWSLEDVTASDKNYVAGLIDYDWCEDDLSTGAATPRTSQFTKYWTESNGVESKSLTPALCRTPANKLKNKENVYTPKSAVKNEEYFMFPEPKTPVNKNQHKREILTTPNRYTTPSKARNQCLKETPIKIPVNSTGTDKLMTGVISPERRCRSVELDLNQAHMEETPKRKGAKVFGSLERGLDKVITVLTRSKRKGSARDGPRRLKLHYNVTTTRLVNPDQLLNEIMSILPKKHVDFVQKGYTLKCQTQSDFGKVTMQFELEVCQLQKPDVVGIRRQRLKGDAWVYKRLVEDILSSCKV

Broadly, the inhibition is the change of the read-out against control, counted positive when it falls. Turning to `C=CC(=O)Nc1cccc(Nc2nc(Nc3ccc(OCCOC)c(F)c3)ncc2F)c1` [Compound 2], the inhibition at 3 µM against GRK7 is 9.96%; against CAMK2d it was -23.3%; against GRK6 it was -3.03%; at MELK, -8.07%; against CHK1, 6.15%; at IKKa/CHUK it was 8.54%. Besides, the values for the inhibition at 3 µM at CLK3 and against FGFR1 were 6.9% and 59.7%, respectively. Moreover, the remaining activity at 3 µM on GRK7 (setting [1]) turned out to be 89.1%; at GRK7 (setting [2]) it was 90.9%; on CAMK2d (setting [1]), 124%; at CAMK2d (setting [2]) it was 123%; at GRK6 (setting [1]), 102%; on GRK6 (setting [2]), 104%. In addition, the remaining activity at 3 µM at MELK (setting [1]) worked out at 109%; on MELK (setting [2]), 107%; at CHK1 (setting [1]), 93.1%; at CHK1 (setting [2]) it was 94.6%; on IKKa/CHUK (setting [1]) it was 91.4%; on IKKa/CHUK (setting [2]) it was 91.5%. In addition, the remaining activity at 3 µM worked out at 90.4% on CLK3 (setting [1]), 95.8% on CLK3 (setting [2]), 41.4% on FGFR1 (setting [1]) and 39.3% on FGFR1 (setting [2]).
